Like-named read-outs stand apart in the source and are kept apart here.

The test system of assay [1] is Pasteurella haemolytica 23C. Put plainly: MIC, broth-dilution microtiter test (Table III). The assay is classed as cell-based. Further details: unit not given here. The method, then: (§1) The MIC's in Table II were determined by standard agar-dilution assays. The MIC's in Table III were obtained using a conventional broth-dilution microtiter test.
Another assay has as its system Mycoplasma hyorhinis. Description: MIC, broth-dilution microtiter test (Table III). The assay is classed as cell-based. Further details: unit not given here. The method, then:
as §1

The next assay deals with Mycoplasma gallisepticum. Description: MIC, broth-dilution microtiter test (Table III). Format: cell-based. More on the design: unit not given here. The method, then:
as §1

A further assay concerns Streptococcus sp. 80. Description: MIC, broth-dilution microtiter test (Table III). The assay is classed as cell-based. Further details: unit not given here. The protocol:
as §1

The subject of assay [2] is Pasteurella multocida 60A. Put plainly: MIC, broth-dilution microtiter test (Table III). The assay is classed as cell-based. Further details: unit not given here. The note with it: avian isolate. The method, then:
as §1

The test system of assay [3] is Pasteurella multocida 17E. Description: MIC, broth-dilution microtiter test (Table III). Format: cell-based. More on the design: unit not given here. The note with it: bovine isolate. The protocol:
as §1

The subject of another assay is Mycoplasma synoviae. Put plainly: MIC, broth-dilution microtiter test (Table III). Format: cell-based. More on the design: unit not given here. The protocol:
as §1

For a further assay, the system named is Staphylococcus aureus. Description: MIC, broth-dilution microtiter test (Table III). Format: cell-based. Further details: unit not given here. The protocol:
as §1

Assay [4] relates to Pasteurella haemolytica 22C. Put plainly: MIC, broth-dilution microtiter test (Table III). Format: cell-based. More on the design: unit not given here. The protocol:
as §1

The subject of assay [5] is Pasteurella multocida 40G. Description: MIC, broth-dilution microtiter test (Table III). The assay is classed as cell-based. More on the design: unit not given here. The protocol: as §1
Assay [6] relates to Pasteurella haemolytica 41D. Put plainly: MIC, broth-dilution microtiter test (Table III). The assay is classed as cell-based. More on the design: unit not given here. The method, then:
as §1

Assay [7] concerns Pasteurella multocida 22A. Description: MIC, broth-dilution microtiter test (Table III). Format: cell-based. Further details: unit not given here. The method, then: as §1
In assay [8] the test system is Pasteurella multocida 68C. Description: MIC, broth-dilution microtiter test (Table III). Format: cell-based. Further details: unit not given here. The protocol:
as §1

The subject of assay [9] is Streptococcus pyogenes C203. Put plainly: MIC, standard agar-dilution assay (Table II). Format: cell-based. Further details: unit not given here. The method, then:
as §1

Assay [10] has as its system Staphylococcus aureus V41. Description: MIC, standard agar-dilution assay (Table II). The note with it: Staphylococcus aureus V41, penicillin-resistant strain. More on the design: unit not given here. The assay is classed as cell-based. The method, then: as §1
In assay [11] the test system is Streptococcus pneumoniae Park I. Description: MIC, standard agar-dilution assay (Table II). The assay is classed as cell-based. More on the design: unit not given here. The method, then:
as §1

For assay [12], the system named is Staphylococcus aureus S13E. Put plainly: MIC, standard agar-dilution assay (Table II). Format: cell-based. Further details: unit not given here. The protocol:
as §1

Assay [13] concerns Staphylococcus epidermidis EPI2. Put plainly: MIC, standard agar-dilution assay (Table II). The assay is classed as cell-based. More on the design: unit not given here. The protocol:
as §1

For assay [14], the system named is Haemophilus influenzae R252. Put plainly: MIC, standard agar-dilution assay (Table II). Format: cell-based. More on the design: unit not given here. The note with it: Haemophilus influenzae R252, ampicillin-resistant strain. The method, then: as §1
The subject of assay [15] is Staphylococcus aureus X400. Put plainly: MIC, standard agar-dilution assay (Table II). Format: cell-based. Further details: unit not given here. The note with it: Staphylococcus aureus X400, methicillin-resistant strain. The method, then:
as §1

For assay [16], the system named is Staphylococcus epidermidis EPI1. Put plainly: MIC, standard agar-dilution assay (Table II). Format: cell-based. Further details: unit not given here. The method, then:
as §1

The test system of assay [17] is Streptococcus Group D 9960. Description: MIC, standard agar-dilution assay (Table II). The assay is classed as cell-based. Further details: unit not given here. The protocol:
as §1

Assay [18] relates to Staphylococcus aureus X1.1. Put plainly: MIC, standard agar-dilution assay (Table II). Format: cell-based. More on the design: unit not given here. The method, then:
as §1

Assay [19] has as its system Haemophilus influenzae Holt. Put plainly: MIC, standard agar-dilution assay (Table II). The assay is classed as cell-based. Further details: unit not given here. The note with it: ampicillin-sensitive strain. The protocol:
as §1

In assay [20] the test system is Streptococcus Group D X66. Put plainly: MIC, standard agar-dilution assay (Table II). Further details: unit not given here. Format: cell-based. The protocol:
as §1

Assay [21] concerns Streptococcus pyogenes C203. Put plainly: ED50 in mice with experimental infections (Table IV). The assay is classed as in vivo. The note with it: Streptococcus pyogenes, doses given 1 and 4 hours postinfection. The method, then: The OMT ester derivatives of this invention have shown in vivo antimicrobial activity against experimental bacterial infections caused by gram-positive bacteria. When two doses of test compound were administered to mice with experimental infections, the activity observed was measured as an ED50 value [effective dose in mg/kg to protect 50% of the test animals: see Warren Wick, et al., J. Bacteriol. 81, 233-235 (1961)].
^a mg/kg × 2; doses given 1 and 4 hours postinfection

Regarding `CCC1OC(=O)CC(O)C(C)C(OC2OC(C)C(O)C(N(C)C)C2O)C(CC=O)CC(C)C(=O)C=CC(C)=CC1COC(=O)C12CC3CC(CC(C3)C1)C2` (stereo not drawn) [Compound 70], the “minimal inhibitory concentration (MIC)” value in [1] was determined as 25; in the assay on Mycoplasma hyorhinis, 3.12; in the assay on Mycoplasma gallisepticum it was 1.56; with Streptococcus sp. 80, 1.56; in [2], 25; in assay [3], 12.5. Besides, the “minimal inhibitory concentration (MIC)” value was 0.39 in the assay with Mycoplasma synoviae; 6.25 with Staphylococcus aureus; 25 in [4]; 12.5 in [5]; 25 in assay [6]; 12.5 in assay [7]. Also, the “minimal inhibitory concentration (MIC)” value in assay [8] came out at 12.5; in [9] it was 1; in assay [10], 1; in assay [11], 0.5; in assay [12], 1; in assay [13], 1. Besides, the “minimal inhibitory concentration (MIC)” value in [14] was 16; in assay [15] it was 1; in [16], 1; in [17] it was 2; in assay [18], 1; in assay [19], 8. Moreover, the “minimal inhibitory concentration (MIC)” value in assay [20] came to 2.

Broadly, the ED50 is the midpoint of the dose-response relation. `CCC(=O)OC1C(OC2C(CC=O)CC(C)C(=O)C=CC(C)=CC(COC(C)=O)C(CC)OC(=O)CC(O)C2C)OC(C)C(O)C1N(C)C` (stereo not drawn) [Compound 11]: the “minimal inhibitory concentration (MIC)” value in the assay on Mycoplasma hyorhinis is on record as 12.5; in the assay on Mycoplasma gallisepticum it was 0.39; in the assay with Streptococcus sp. 80, 1.56; in [2], 50; in [3] it was 25; with Mycoplasma synoviae, 0.39. Besides, the “minimal inhibitory concentration (MIC)” value amounted to 6.25 in the assay with Staphylococcus aureus; 0.5 in [9]; 1 in [10]; 0.25 in assay [11]; 0.5 in assay [12]; 0.5 in [13]. Moreover, the “minimal inhibitory concentration (MIC)” value in assay [14] came out at 4; in assay [15], 1; in [16], 0.5; in [17], 1; in assay [18], 0.5; in assay [19], 4. The “minimal inhibitory concentration (MIC)” value in assay [20] is given as 1. Besides, the 50% effective dose (ED50) in [21] (C203, oral, read-out: ED50, Oral) was > 150 mg/kg; in assay [21] (C203, sc, subcutaneous, read-out: ED50, Subcutaneous), 5.3 mg/kg.

Regarding `CCC1OC(=O)CC(O)C(C)C(OC2OC(C)C(O)C(N(C)C)C2OC(C)=O)C(CC=O)CC(C)C(=O)C=CC(C)=CC1COC(=O)Cc1ccc([N+](=O)[O-])cc1` (stereo not drawn) [Compound 64], the “minimal inhibitory concentration (MIC)” value is recorded as 3.12 in assay [1]; 0.78 with Mycoplasma hyorhinis; 0.097 in the assay with Mycoplasma gallisepticum; < 0.05 with Streptococcus sp. 80; 1.56 in [2]; 1.56 in [3]. In addition, the “minimal inhibitory concentration (MIC)” value in the assay on Mycoplasma synoviae was < 0.05; with Staphylococcus aureus, 0.78; in assay [4], 3.12; in assay [5] it was 1.56; in assay [6], 3.12; in assay [7], 1.56. Besides, the “minimal inhibitory concentration (MIC)” value in assay [8] stood at 1.56; in [9] it was 0.06; in [10], 0.125; in assay [11], 0.015; in [12], 0.125; in assay [13], 0.25. Moreover, the “minimal inhibitory concentration (MIC)” value in assay [14] came to 1; in assay [15] it was 0.125; in assay [16], 0.125; in [17], 0.125; in assay [18], 0.125; in [19], 1. Besides, the “minimal inhibitory concentration (MIC)” value in assay [20] came to 0.125.

As to `CCC1OC(=O)CC(O)C(C)C(OC2OC(C)C(OC(C)=O)C(N(C)C)C2OC(C)=O)C(CC=O)CC(C)C(=O)C=CC(C)=CC1COC(=O)C(Cl)Cl` (stereo not drawn) [Compound 66, 2',4'-Di-O-acetyl-23-O-dichloroacetyl-OMT], the “minimal inhibitory concentration (MIC)” value in assay [1] is given as 12.5; in the assay with Mycoplasma hyorhinis, 6.25; in the assay with Mycoplasma gallisepticum, 1.56; in the assay on Streptococcus sp. 80 it was < 0.78; in assay [2], 6.25; in assay [3], 3.12. Besides, the “minimal inhibitory concentration (MIC)” value in the assay with Mycoplasma synoviae amounted to 1.56; in the assay with Staphylococcus aureus, 3.12; in [4] it was 25; in assay [5], 3.12; in [6] it was 25; in [7], 3.12. For the same compound, the “minimal inhibitory concentration (MIC)” value is reported as 3.12 in assay [8]; 0.25 in assay [9]; 2 in assay [10]; 0.125 in assay [11]; 1 in [12]; 2 in [13]. For the same compound, the “minimal inhibitory concentration (MIC)” value in [14] was determined as 1; in assay [15] it was 2; in assay [16], 1; in assay [17], 2; in assay [18], 1; in assay [19], 2. For the same compound, the “minimal inhibitory concentration (MIC)” value in assay [20] is listed as 1.

These data come from patent US4401660A, “Ester derivatives of 5-O-mycaminosyl tylonolide and method of using same” (Eli Lilly and Company, priority 1981, dated 1983).
